# Structures can show the parent of a compound that is named as a salt.
# Assays:
# FLT3 = biological target: T1, FLT3 (Homo sapiens, UniProt P36888); experiment: TR-FRET kinase activity assay, FLT3; assay type: biochemical; conditions: ATP at Km, 60 minutes
# T1 sequence (P36888 27-993): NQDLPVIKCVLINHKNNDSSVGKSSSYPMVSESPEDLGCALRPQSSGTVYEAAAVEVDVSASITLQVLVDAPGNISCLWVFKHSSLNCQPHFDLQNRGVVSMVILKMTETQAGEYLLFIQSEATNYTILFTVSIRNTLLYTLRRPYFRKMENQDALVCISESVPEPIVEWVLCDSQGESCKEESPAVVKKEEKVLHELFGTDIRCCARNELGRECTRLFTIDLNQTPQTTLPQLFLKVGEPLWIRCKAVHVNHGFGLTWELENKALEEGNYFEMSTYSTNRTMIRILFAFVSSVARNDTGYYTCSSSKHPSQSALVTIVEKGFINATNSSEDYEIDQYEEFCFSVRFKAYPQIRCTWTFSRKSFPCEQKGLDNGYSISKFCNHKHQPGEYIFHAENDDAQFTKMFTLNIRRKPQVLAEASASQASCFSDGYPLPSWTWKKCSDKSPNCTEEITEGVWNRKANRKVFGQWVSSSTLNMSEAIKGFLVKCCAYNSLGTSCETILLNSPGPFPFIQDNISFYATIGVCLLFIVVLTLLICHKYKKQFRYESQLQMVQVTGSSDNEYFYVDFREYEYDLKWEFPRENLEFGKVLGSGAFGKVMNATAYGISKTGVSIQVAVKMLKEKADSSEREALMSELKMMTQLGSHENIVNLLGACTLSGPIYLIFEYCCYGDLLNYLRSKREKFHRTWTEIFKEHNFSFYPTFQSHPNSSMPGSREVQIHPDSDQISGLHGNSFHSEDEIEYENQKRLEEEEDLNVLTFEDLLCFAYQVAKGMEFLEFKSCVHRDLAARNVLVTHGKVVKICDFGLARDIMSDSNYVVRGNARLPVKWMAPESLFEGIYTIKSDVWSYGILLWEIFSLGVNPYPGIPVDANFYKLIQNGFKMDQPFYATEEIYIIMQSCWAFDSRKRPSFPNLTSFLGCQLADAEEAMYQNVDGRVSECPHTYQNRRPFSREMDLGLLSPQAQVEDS
# Summary of the method: (§1)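 TR-FRET signal from Eu-labeled phospho-site antibody bound to tyrosine-phosphorylated fluorescent peptide; inhibition lowers signal, giving IC50. Reactions: 50 mM HEPES pH 7.5, 10 mM MgCl2, 1 mM EGTA, 0.01% Brij 35, 1 mM DTT, ATP at Km per enzyme, 60 min, RT.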
# MERTK = biological target: T2, MERTK (Homo sapiens, UniProt Q12866); experiment: TR-FRET kinase activity assay, MERTK; assay type: biochemical; conditions: for IC50: TR-FRET activity assay, ATP at Km, 60 minutes, read-out: Mer IC50; for Mer/Flt3 ratio (FLT3 IC50/Mer IC50): ratio calculated as FLT3 IC50/Mer IC50
# T2 sequence (Q12866 21-999): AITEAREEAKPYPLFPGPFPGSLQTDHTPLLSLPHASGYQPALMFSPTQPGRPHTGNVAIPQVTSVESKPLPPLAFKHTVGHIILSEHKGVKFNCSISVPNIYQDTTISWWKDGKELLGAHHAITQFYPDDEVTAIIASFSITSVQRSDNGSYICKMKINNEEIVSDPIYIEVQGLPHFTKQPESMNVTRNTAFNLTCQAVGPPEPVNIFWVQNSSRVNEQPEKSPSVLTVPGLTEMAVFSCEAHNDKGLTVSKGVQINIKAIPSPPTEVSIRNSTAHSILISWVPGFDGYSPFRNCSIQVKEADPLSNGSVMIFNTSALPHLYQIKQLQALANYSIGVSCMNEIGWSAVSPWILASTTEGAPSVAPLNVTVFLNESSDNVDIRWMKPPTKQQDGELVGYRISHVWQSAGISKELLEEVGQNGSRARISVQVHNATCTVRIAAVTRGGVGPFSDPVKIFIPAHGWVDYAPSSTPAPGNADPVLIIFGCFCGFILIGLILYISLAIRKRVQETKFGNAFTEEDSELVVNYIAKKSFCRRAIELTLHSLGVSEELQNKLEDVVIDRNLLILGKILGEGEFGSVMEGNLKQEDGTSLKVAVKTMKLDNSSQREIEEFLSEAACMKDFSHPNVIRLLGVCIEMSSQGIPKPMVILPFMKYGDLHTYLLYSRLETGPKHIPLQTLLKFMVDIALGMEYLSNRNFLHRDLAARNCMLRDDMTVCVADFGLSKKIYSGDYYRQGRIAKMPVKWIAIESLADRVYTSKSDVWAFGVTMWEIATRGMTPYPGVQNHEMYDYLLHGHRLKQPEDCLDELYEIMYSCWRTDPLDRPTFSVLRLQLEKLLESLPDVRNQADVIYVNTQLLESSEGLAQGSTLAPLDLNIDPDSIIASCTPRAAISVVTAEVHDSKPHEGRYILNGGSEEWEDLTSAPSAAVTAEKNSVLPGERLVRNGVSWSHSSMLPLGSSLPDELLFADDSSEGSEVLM
# Summary of the method: as §1
SMILES,IC50 (FLT3) [nM],IC50 (MERTK) [nM],Mer/Flt3 ratio (FLT3 IC50/Mer IC50) (MERTK)
CCCCNc1ncc2c(=O)n(-c3ccc(CN4CCOCC4)cc3)cc([C@H]3CC[C@H](O)CC3)c2n1 [Compound 101],100 to 1000,≤ 100,+ (a ratio of >2.0 and <10)
CCCCNc1ncc2c(OC)ncc([C@H]3CC[C@H](O)CC3)c2n1 [Compound 127],≤ 100,≤ 100,+ (a ratio of >2.0 and <10)
"CCCC(C)Nc1ncc2c(=O)n(C3CCN(C(C)=O)CC3)cc([C@H]3CC[C@H](O)CC3)c2n1 (stereo partly drawn) [Compound 128, 6-(1-acetylpiperidin-4-yl)-8-((1r,4r)-4-hydroxycyclohexyl)-2-(pentan-2-ylamino)pyrido[4,3-d]pyrimidin-5(6H)-one hydrochloride]",1000 to 10000,≤ 100,+++ (a ratio of >100)
CCCC(C)Nc1ncc2c(OC3CCOCC3)ncc([C@H]3CC[C@H](O)CC3)c2n1 (stereo partly drawn) [Compound 133],1000 to 10000,≤ 100,+++ (a ratio of >100)
CC(C)Nc1ncc2c(OC3CCNCC3)ncc([C@H]3CC[C@H](O)CC3)c2n1 [Compound 135],1000 to 10000,≤ 100,+++ (a ratio of >100)
O[C@H]1CC[C@H](c2cnc(OC3CCNCC3)c3cnc(N[C@H]4CCOC4)nc32)CC1 [Compound 136],1000 to 10000,≤ 100,++ (a ratio of between 10 and 100)
C[C@@H](CO)Nc1ncc2c(OC3CCOCC3)ncc([C@H]3CC[C@H](O)CC3)c2n1 [Compound 137],1000 to 10000,100 to 1000,++ (a ratio of between 10 and 100)
CCC(C)Nc1ncc2c(OC3CCOCC3)ncc([C@H]3CC[C@H](O)CC3)c2n1 (stereo partly drawn) [Compound 140],1000 to 10000,≤ 100,+++ (a ratio of >100)
CCCC(C)Nc1ncc2c(OC3CCS(=O)(=O)CC3)ncc([C@H]3CC[C@H](O)CC3)c2n1 (stereo partly drawn) [Compound 141],1000 to 10000,≤ 100,+++ (a ratio of >100)
CCCC(C)Nc1ncc2c(OC3CCS(=O)(=O)CC3)ncc([C@H]3CC[C@@H](O)CC3)c2n1 (stereo partly drawn) [Compound 142],1000 to 10000,≤ 100,++ (a ratio of between 10 and 100)
CC1(C)CC(Nc2ncc3c(OC4CCOCC4)ncc([C@H]4CC[C@H](O)CC4)c3n2)C1 [Compound 144],≤ 100,≤ 100,+ (a ratio of >2.0 and <10)
COC[C@@H](C)Nc1ncc2c(OC3CCOCC3)ncc([C@H]3CC[C@H](O)CC3)c2n1 [Compound 145],1000 to 10000,100 to 1000,++ (a ratio of between 10 and 100)
CCCC(C)Nc1ncc2c(N(C)C3CCN(C)CC3)ncc([C@H]3CC[C@H](O)CC3)c2n1 (stereo partly drawn) [Compound 146],1000 to 10000,≤ 100,++ (a ratio of between 10 and 100)

# Other lines, results leading:
IC50 (FLT3) [nM],IC50 (MERTK) [nM],Mer/Flt3 ratio (FLT3 IC50/Mer IC50) (MERTK),SMILES
≤ 100,≤ 100,+ (a ratio of >2.0 and <10),"CCCCNc1ncc2c(NCc3ccc(F)cc3)ncc([C@H]3CC[C@H](O)CC3)c2n1 [Compound 103, 4-[2-(butylamino)-5-[(4-fluorophenyl)methylamino]pyrido[4,3-d]pyrimidin-8-yl]cyclohexanol hydrochloride]"
≤ 100,≤ 100,+ (a ratio of >2.0 and <10),"CCCCNc1ncc2c(OC3CCOCC3)ncc([C@H]3CC[C@H](O)CC3)c2n1 [Compound 104, (1r,4r)-4-(2-(butylamino)-5-((tetrahydro-2H-pyran-4-yl)oxy)pyrido[4,3-d]pyrimidin-8-yl)cyclohexanol]"
≤ 100,≤ 100,+ (a ratio of >2.0 and <10),CCCCNc1ncc2c(OC3CCNCC3)ncc([C@H]3CC[C@H](O)CC3)c2n1 [Compound 129]
1000 to 10000,≤ 100,+++ (a ratio of >100),CCCCC[C@H](C)Nc1ncc2c(OC3CCNCC3)ncc([C@H]3CC[C@H](O)CC3)c2n1 [Compound 130]
≤ 100,≤ 100,+ (a ratio of >2.0 and <10),CCCCNc1ncc2c(OC3CCN(C)CC3)ncc([C@H]3CC[C@H](O)CC3)c2n1 [Compound 131]
≤ 100,≤ 100,++ (a ratio of between 10 and 100),O[C@H]1CC[C@H](c2cnc(OC3CCOCC3)c3cnc(NC4CCCC4)nc32)CC1 [Compound 132]
100 to 1000,≤ 100,+ (a ratio of >2.0 and <10),"O[C@H]1CC[C@H](c2cnc(OC3CCOCC3)c3cnc(Nc4ccc(Cl)cc4)nc32)CC1 [Compound 134, (1r,4r)-4-(2-((4-chlorophenyl)amino)-5-((tetrahydro-2H-pyran-4-yl)oxy)pyrido[4,3-d]pyrimidin-8-yl)cyclohexan-1-ol]"
1000 to 10000,≤ 100,+++ (a ratio of >100),CCCC(C)Nc1ncc2c(=O)n(C3CCN(S(C)(=O)=O)CC3)cc([C@H]3CC[C@@H](O)CC3)c2n1 (stereo partly drawn) [Compound 138]
100 to 1000,≤ 100,+++ (a ratio of >100),CCCC(C)Nc1ncc2c(O[C@H]3CC[C@H](O)CC3)ncc([C@H]3CC[C@H](O)CC3)c2n1 (stereo partly drawn) [Compound 139]
1000 to 10000,≤ 100,+++ (a ratio of >100),CCCC(C)Nc1ncc2c(OC3CCN(S(C)(=O)=O)CC3)ncc([C@H]3CC[C@H](O)CC3)c2n1 (stereo partly drawn) [Compound 143]
1000 to 10000,≤ 100,+++ (a ratio of >100),CCCC(C)Nc1ncc2c(OC3CCC(OC)CC3)ncc([C@H]3CC[C@H](O)CC3)c2n1 (stereo partly drawn) [Compound 147]
